# Species on record: Rattus norvegicus
# Assay: DrugMatrix - Regimen: Daily Repeat
# Assay type: toxicity, organism-based, Sprague-Dawley
# Set-up: regimen Daily Repeat, gender Male, age 6-8 weeks
# Settings: in vivo, po, route oral GAVAGE, vehicle 100 % WATER; for ABSOLUTE BASOPHIL / ABSOLUTE EOSINOPHIL / ABSOLUTE LYMPHOCYTE / ABSOLUTE MONOCYTE / ABSOLUTE SEGMENTED NEUTROPHIL / BASOPHIL / EOSINOPHIL / ERYTHROCYTE COUNT / HEMATOCRIT / HEMOGLOBIN / LEUKOCYTE COUNT / LYMPHOCYTE / MEAN CORPUSCULAR HEMOGLOBIN / MEAN CORPUSCULAR HEMOGLOBIN CONCENTRATION / MEAN CORPUSCULAR VOLUME / MONOCYTE / NEUTROPHIL / NUCLEATED RED BLOOD CELLS / PLATELET COUNT: tissue Blood; for ALANINE AMINOTRANSFERASE / ALBUMIN / ALKALINE PHOSPHATASE / ASPARTATE AMINOTRANSFERASE / BLOOD UREA NITROGEN / CARBON DIOXIDE / CHLORIDE / CHOLESTEROL / CREATINE PHOSPHOKINASE / CREATININE / GLUCOSE / LACTATE DEHYDROGENASE / LIPASE / PHOSPHORUS / POTASSIUM / SODIUM / TOTAL BILIRUBIN / TOTAL PROTEIN / URIC ACID: tissue Plasma
# [1] = 0 mg/kg, 72 h, dose level Control, time 3 day
# [2] = 0 mg/kg, 120 h, dose level Control, time 5 day
# [3] = 120 mg/kg, 72 h, dose level Low, time 3 day
compound,measurement,setting,value
Cc1onc(-c2ccccc2Cl)c1C(=O)N[C@@H]1C(=O)N2[C@@H]1SC(C)(C)[C@@H]2C(=O)O [CLOXACILLIN],ABSOLUTE BASOPHIL,[1],0 CELLS/uL
same,ABSOLUTE EOSINOPHIL,[1],40 CELLS/uL
same,ABSOLUTE LYMPHOCYTE,[1],13599.5 CELLS/uL
same,ABSOLUTE MONOCYTE,[1],239.33 CELLS/uL
same,ABSOLUTE SEGMENTED NEUTROPHIL,[1],1021.17 CELLS/uL
same,BASOPHIL,[1],0%
same,EOSINOPHIL,[1],0.33%
same,ERYTHROCYTE COUNT,[1],5.71 x10E6/uL
same,HEMATOCRIT,[1],36.35%
same,HEMOGLOBIN,[1],14.05 G/DL
same,LEUKOCYTE COUNT,[1],14.9 x10E3/uL
same,LYMPHOCYTE,[1],91%
same,MEAN CORPUSCULAR HEMOGLOBIN,[1],24.62 pg
same,MEAN CORPUSCULAR HEMOGLOBIN CONCENTRATION,[1],38.65 G/DL
same,MEAN CORPUSCULAR VOLUME,[1],63.7 fL
same,MONOCYTE,[1],1.5%
same,NEUTROPHIL,[1],7.17%
same,NUCLEATED RED BLOOD CELLS,[1],0.33 /100WBC
same,PLATELET COUNT,[1],1225.5 x10E3/uL
same,ALANINE AMINOTRANSFERASE,[1],48.5 u/L
same,ALBUMIN,[1],4.18 G/DL
same,ALKALINE PHOSPHATASE,[1],390.83 u/L
same,ASPARTATE AMINOTRANSFERASE,[1],89 u/L
same,BLOOD UREA NITROGEN,[1],14.83 mg/dL
same,CARBON DIOXIDE,[1],24.83 mmol/L
same,CHLORIDE,[1],100.83 MEQ/L
same,CHOLESTEROL,[1],72.5 mg/dL
same,CREATINE PHOSPHOKINASE,[1],503 u/L
same,CREATININE,[1],0.2 mg/dL
same,GLUCOSE,[1],163 mg/dL
same,LACTATE DEHYDROGENASE,[1],316.83 u/L
same,LIPASE,[1],9.83 u/L
same,PHOSPHORUS,[1],11.57 mg/dL
same,POTASSIUM,[1],6.16 MEQ/L
same,SODIUM,[1],142.62 MEQ/L
same,TOTAL BILIRUBIN,[1],0.2 mg/dL
same,TOTAL PROTEIN,[1],5.8 G/DL
same,URIC ACID,[1],1.65 mg/dL
same,ABSOLUTE BASOPHIL,[2],0 CELLS/uL
same,ABSOLUTE EOSINOPHIL,[2],21 CELLS/uL
same,ABSOLUTE LYMPHOCYTE,[2],14288.5 CELLS/uL
same,ABSOLUTE MONOCYTE,[2],205.33 CELLS/uL
same,ABSOLUTE SEGMENTED NEUTROPHIL,[2],968.5 CELLS/uL
same,BASOPHIL,[2],0%
same,EOSINOPHIL,[2],0.17%
same,ERYTHROCYTE COUNT,[2],5.83 x10E6/uL
same,HEMATOCRIT,[2],36.53%
same,HEMOGLOBIN,[2],14.4 G/DL
same,LEUKOCYTE COUNT,[2],15.48 x10E3/uL
same,LYMPHOCYTE,[2],92%
same,MEAN CORPUSCULAR HEMOGLOBIN,[2],24.72 pg
same,MEAN CORPUSCULAR HEMOGLOBIN CONCENTRATION,[2],39.43 G/DL
same,MEAN CORPUSCULAR VOLUME,[2],62.68 fL
same,MONOCYTE,[2],1.33%
same,NEUTROPHIL,[2],6.5%
same,NUCLEATED RED BLOOD CELLS,[2],0.17 /100WBC
same,PLATELET COUNT,[2],1280.5 x10E3/uL
same,ALANINE AMINOTRANSFERASE,[2],50 u/L
same,ALBUMIN,[2],4.28 G/DL
same,ALKALINE PHOSPHATASE,[2],380.17 u/L
same,ASPARTATE AMINOTRANSFERASE,[2],82.67 u/L
same,BLOOD UREA NITROGEN,[2],15.33 mg/dL
same,CARBON DIOXIDE,[2],27.17 mmol/L
same,CHLORIDE,[2],100.33 MEQ/L
same,CHOLESTEROL,[2],60.67 mg/dL
same,CREATINE PHOSPHOKINASE,[2],441.5 u/L
same,CREATININE,[2],0.16 mg/dL
same,GLUCOSE,[2],146 mg/dL
same,LACTATE DEHYDROGENASE,[2],189.33 u/L
same,LIPASE,[2],9.17 u/L
same,PHOSPHORUS,[2],11.67 mg/dL
same,POTASSIUM,[2],6.86 MEQ/L
same,SODIUM,[2],142.33 MEQ/L
same,TOTAL BILIRUBIN,[2],0.2 mg/dL
same,TOTAL PROTEIN,[2],6.12 G/DL
same,URIC ACID,[2],1.82 mg/dL
same,ABSOLUTE BASOPHIL,[3],0 CELLS/uL
same,ABSOLUTE EOSINOPHIL,[3],0 CELLS/uL
same,ABSOLUTE LYMPHOCYTE,[3],13421.33 CELLS/uL
same,ABSOLUTE MONOCYTE,[3],92.33 CELLS/uL
same,ABSOLUTE SEGMENTED NEUTROPHIL,[3],1186.33 CELLS/uL
same,BASOPHIL,[3],0%
same,EOSINOPHIL,[3],0%
same,ERYTHROCYTE COUNT,[3],5.89 x10E6/uL
same,HEMATOCRIT,[3],36%
same,HEMOGLOBIN,[3],13.83 G/DL
same,LEUKOCYTE COUNT,[3],14.7 x10E3/uL
same,LYMPHOCYTE,[3],90.67%
same,MEAN CORPUSCULAR HEMOGLOBIN,[3],23.47 pg
same,MEAN CORPUSCULAR HEMOGLOBIN CONCENTRATION,[3],38.4 G/DL
same,MEAN CORPUSCULAR VOLUME,[3],61.07 fL
same,MONOCYTE,[3],0.67%
same,NEUTROPHIL,[3],8.67%
same,NUCLEATED RED BLOOD CELLS,[3],0 /100WBC
same,PLATELET COUNT,[3],1271.67 x10E3/uL
same,ALANINE AMINOTRANSFERASE,[3],68 u/L
same,ALBUMIN,[3],4.1 G/DL
same,ALKALINE PHOSPHATASE,[3],359 u/L
same,ASPARTATE AMINOTRANSFERASE,[3],111 u/L
same,BLOOD UREA NITROGEN,[3],15.33 mg/dL
same,CARBON DIOXIDE,[3],23 mmol/L
same,CHLORIDE,[3],103 MEQ/L
same,CHOLESTEROL,[3],79.33 mg/dL
same,CREATINE PHOSPHOKINASE,[3],603.33 u/L
same,CREATININE,[3],0.17 mg/dL
same,GLUCOSE,[3],150.33 mg/dL
same,LACTATE DEHYDROGENASE,[3],726 u/L
same,LIPASE,[3],9 u/L
same,PHOSPHORUS,[3],13.1 mg/dL
same,POTASSIUM,[3],6.07 MEQ/L
same,SODIUM,[3],143.5 MEQ/L
same,TOTAL BILIRUBIN,[3],0.17 mg/dL
same,TOTAL PROTEIN,[3],5.77 G/DL
same,URIC ACID,[3],1.8 mg/dL

# — ChEMBL document CHEMBL3885881, “DrugMatrix”
